Measured values as given in patent US6572788B2, “Amine oxide wood preservatives” (Lonza, Inc., priority 2000, dated 2003).

Assays:
Decay = assay: Field stake test (AWPA E7), southern yellow pine stakes in ground: decay; settings: 10 stakes, 10 = all stakes intact and free of decay, 0 = completely decayed
Experimental: (§1) 40″ by ¾″ by ¾″ pieces of southern yellow pine lumber were treated with the aqueous solution prepared in Example 1 according to the procedure described in the American Wood Preservers' Association test method E7, which is hereby incorporated by reference. The procedure is generally as follows. The southern yellow pine lumber pieces were placed in a pressure treating cylinder for about 30 minutes at about −90 kPa, injected with the aqueous solution, and pressurized to about 800 kPa for about 30 minutes. The pressure was released by the addition of air and the solution was drained.
(§2) This procedure was repeated with aqueous solutions containing 0.5 or 1.0% by weight of copper chromium arsenate (CCA) and aqueous solutions containing 0.5, 1.0, or 1.5% by weight of didecyl dimethyl ammonium chloride (DDAC).
(§3) After 11 months, the stakes were observed.

[1] = tested on: Poria placenta (P. placenta), a brown rot fungus; assay: Agar plate method, fungus growth inhibition; type: cell-based
Experimental: (§4) The efficacy of aqueous solutions of amine oxides and didecyldimethyl ammonium chloride to inhibit fungus growth was evaluated by the agar plate method known in the art. […] The fungi tested were Trametes versicolor (T. versicolor), a white rot fungus; Gloeophyllum trabeum (G. trabeum), a brown rot fungus which is tolerant of arsenic and phenolic type wood preservatives; Poria placenta (P. placenta), a brown rot fungus which is tolerant to copper in wood preservatives; Lentinus lepideus (L. lepideus), a brown rot fungus which is tolerant to creosote; Coniophora puteana (C. puteana), a brown rot fungus; and Chaetomium globsum (C. globsum), a soft rot fungus.

[2] = tested on: Gloeophyllum trabeum (G. trabeum), a brown rot fungus; assay: Agar plate method, fungus growth inhibition; type: cell-based
Experimental: as §4

[3] = tested on: Trametes versicolor (T. versicolor), a white rot fungus; assay: Agar plate method, fungus growth inhibition; type: cell-based; settings: 50% retardation of growth
Experimental: as §4

[4] = tested on: Chaetomium globsum (C. globsum), a soft rot fungus; assay: Agar plate method, fungus growth inhibition; type: cell-based
Experimental: as §4

stains, molds, and fungi [5] = assay: Wood preserving efficacy on freshly cut tulip wood (dip treatment); also: key: 4 - Clean with no visible stain or mold; 3 - Trace amount of white/black fungal growth; 2 - Black and/or white fungal growth visible on all faces and ends; 1 - Heavy fungal growth
Experimental: The wood preserving efficacy of each aqueous test solution in Table 17 below was tested on freshly cut tulip wood (also known as Tulip-Popular, Yellow Popular, and Liriodendron tulipfera L.) as follows. All percentages in Table 17 are by weight. Pieces of tulip wood cut from a 4″ debarked branch were cut into pieces. Each piece was then split into 4 sections. Each section was dipped into the test solution for about 1 minute and blotted with a paper towel to remove excess liquid. The sections were sealed in a clear plastic bag and stored at ambient conditions. The sections were observed after 1, 3, 7, and 11 weeks for the growth of stains, molds, and fungi. The aqueous test solutions were prepared by mixing the active ingredient with water.

stains, molds, and fungi [6] = assay: Wood preserving efficacy on freshly cut white birch wood (dip treatment, sealed bag); parameters: key: 4 - Clean with no visible stain or mold; 3 - Trace amount of white/black fungal growth; 2 - Black and/or white fungal growth visible on all faces and ends; 1 - Heavy fungal growth
Experimental: The wood preserving efficacy of each aqueous test solution in Table 1 below was tested on freshly cut white birch wood as follows. All percentages in Table 1 are by weight. A branch of white birch tree measuring about 3 inches in diameter was cut into pieces about 6 inch in length. Each piece was then split into 4 sections. Each section was dipped into the test solution for about 1 minute and blotted with a paper towel to remove excess liquid. The sections were sealed in a clear plastic bag and stored at ambient conditions. The sections were observed after 1, 3, 7, and 12 weeks for the growth of stains, molds, and fungi. The aqueous test solutions were prepared by mixing the active ingredient with water.

Termite = assay: Field stake test (AWPA E7), southern yellow pine stakes in ground: termite attack; settings: 10 stakes, 10 = free of termite attack, 0 = completely attacked
Experimental: as §1, §2, §3

stains, molds, and fungi [7] = assay: Wood preserving efficacy on freshly cut beech wood (dip treatment); settings: beech wood pieces (Example 15); also: key: 4 - Clean with no visible stain or mold; 3 - Trace amount of white/black fungal growth; 2 - Black and/or white fungal growth visible on all faces and ends; 1 - Heavy fungal growth
Experimental: The wood preserving efficacy of each aqueous test solution in Table 18 below was tested on freshly cut beech wood (Fagus grandifolia Ehrh.) as follows. All percentages in Table 18 are by weight. A 1″ branch of a beech tree was split into two pieces. The bark was left on the pieces. Each piece was dipped into the test solution for about 1 minute and blotted with a paper towel to remove excess liquid. […] The aqueous test solutions were prepared by mixing the active ingredient with water.

stains, molds, and fungi [8] = assay: Wood preserving efficacy on freshly cut green chestnut oak (dip treatment); parameters: scale not given here
[9] = tested on: Coniophora puteana (C. puteana), a brown rot fungus; assay: Agar plate method, fungus growth inhibition; type: cell-based
Experimental: as §4

[10] = tested on: Lentinus lepideus (L. lepideus), a brown rot fungus; assay: Agar plate method, fungus growth inhibition; type: cell-based
Experimental: as §4

[11] = tested on: P. placenta (brown rot fungi); assay: Agar dilution plate method, wood rot fungi; type: cell-based; settings: P. placenta, 100% growth retardation, Table 14
Experimental: (§5) The efficacy of the aqueous amine oxide solutions in Table 14 at various concentrations against the wood rot fungi T. versicolor (white rot fungi), G. trabeum (brown rot fungi), P. placenta (brown rot fungi), and C. globosum (soft rot decay fungi) were determined using the agar dilution plate method well known in the art. […] The percent retardation of the fungi was determined by the percentage change in the diameter of the fungi on the agar plate (i.e. Percent Retardation=((Diameter of Control)−(Diameter of Treated Fungi))/(Diameter of Control)*100%).

[12] = tested on: C. globosum (soft rot decay fungi); assay: Agar dilution plate method, wood rot fungi; type: cell-based; settings: C. globosum, 100% growth retardation, Table 14
Experimental: as §5

[13] = tested on: T. versicolor (white rot fungi); assay: Agar dilution plate method, wood rot fungi; type: cell-based; settings: T. versicolor, 100% growth retardation, Table 14
Experimental: as §5

[14] = tested on: G. trabeum (brown rot fungi); assay: Agar dilution plate method, wood rot fungi; type: cell-based; settings: G. trabeum, 100% growth retardation, Table 14
Experimental: as §5

[15] = Field Site A, listed as 0.5% (w/w) DDAC
[16] = Field Site A, listed as 1.0% (w/w) DDAC
[17] = Field Site A, listed as […] (w/w) DDAC

CCCCCCCCCC[N+](C)(C)CCCCCCCCCC.[Cl-] [Didecyldimethyl ammonium chloride, didecyldimethylammonium chloride, reference compound]
Rating after 11 Months, Decay (Decay; [15]): 9.9 ± 0.3
Rating after 11 Months, Decay (Decay; [16]): 10
Rating after 11 Months, Decay (Decay; [17]): 10
Rating after 11 Months, Decay (Decay; Field Site B): 10
IC50 [1]: 5-25 ppm
IC50 [2]: 10-40 ppm
IC50 [3]: 30-50 ppm
IC50 [4]: 10-20 ppm
Rating of treated tulip sections vs. Time (stains, molds, and fungi [5]; 1 week): 4
Rating of treated tulip sections vs. Time (stains, molds, and fungi [5]; 3 weeks): 4
Rating of treated tulip sections vs. Time (stains, molds, and fungi [5]; 7 weeks, listed as 0.32% Didecyldimethyl ammonium chloride): 3.5
Rating of treated tulip sections vs. Time (stains, molds, and fungi [5]; 7 weeks, listed as 0.65% Didecyldimethyl ammonium chloride): 4
Rating of treated tulip sections vs. Time (stains, molds, and fungi [5]; 11 weeks, listed as 0.32% Didecyldimethyl ammonium chloride): 3.5
Rating of treated tulip sections vs. Time (stains, molds, and fungi [5]; 11 weeks, listed as 0.65% Didecyldimethyl ammonium chloride): 4
Rating of treated white birch sections vs. Time (stains, molds, and fungi [6]; 1 week): 4
Rating of treated white birch sections vs. Time (stains, molds, and fungi [6]; 3 weeks): 4
Rating of treated white birch sections vs. Time (stains, molds, and fungi [6]; 7 weeks): 3
Rating of treated white birch sections vs. Time (stains, molds, and fungi [6]; 12 weeks): 3
Rating after 11 Months, Termite Attack (Termite; [15]): 9.3 ± 0.9
Rating after 11 Months, Termite Attack (Termite; [16]): 9.9 ± 0.3
Rating after 11 Months, Termite Attack (Termite; [17]): 8.9 ± 1.3
Rating after 11 Months, Termite Attack (Termite; Field Site B): 10
Rating of treated tulip sections vs. Time (stains, molds, and fungi [7]; 1 week): 4
Rating of treated tulip sections vs. Time (stains, molds, and fungi [7]; 3 weeks, listed as 0.32% Didecyldimethyl ammonium chloride): 2
Rating of treated tulip sections vs. Time (stains, molds, and fungi [7]; 3 weeks, listed as 0.65% Didecyldimethyl ammonium chloride): 3.5
Rating of treated tulip sections vs. Time (stains, molds, and fungi [7]; 7 weeks): 2
Rating of treated tulip sections vs. Time (stains, molds, and fungi [7]; 11 weeks): 2
Rating of treated green chestnut oak sections vs. Time (stains, molds, and fungi [8]; 2 weeks): 3
Rating of treated green chestnut oak sections vs. Time (stains, molds, and fungi [8]; 4 weeks): 2
Rating of treated green chestnut oak sections vs. Time (stains, molds, and fungi [8]; 5 weeks): 2
Rating of treated green chestnut oak sections vs. Time (stains, molds, and fungi [8]; 9 weeks): 1

CCCCCCCCCCCCCCCC[N+](C)(C)[O-] [Hexadecyl dimethylamine oxide, hexadecyl dimethylamine oxide]
IC50 [1]: 5-25 ppm
IC50 [2]: 25-30 ppm
IC50 [3]: 30 ppm
IC50 [9]: 80 ppm
IC50 [4]: 20-50 ppm
IC50 [10]: 3 ppm
Rating of treated white birch sections vs. Time (stains, molds, and fungi [6]; 1 week): 3
Rating of treated white birch sections vs. Time (stains, molds, and fungi [6]; 3 weeks): 2
Rating of treated white birch sections vs. Time (stains, molds, and fungi [6]; 7 weeks): 2
Rating of treated white birch sections vs. Time (stains, molds, and fungi [6]; 12 weeks): 2
MIC ([11]; read-out: MIC (ppm of amine oxides)): > 1000 µg/mL
MIC ([12]; Chaetomium globosum, read-out: MIC (ppm of amine oxides)): > 1000 µg/mL
MIC ([13]; Trametes versicolor, read-out: MIC (ppm of amine oxides)): > 1000 µg/mL
MIC ([14]; Gloeophyllum trabeum, read-out: MIC (ppm of amine oxides)): > 1000 µg/mL

Coco-dimethylamine oxide
IC50 [1]: 3-7 ppm
IC50 [2]: 10-15 ppm
IC50 [3]: 40-50 ppm
IC50 [9]: 80 ppm
IC50 [4]: 50-70 ppm
IC50 [10]: 15 ppm
Rating of treated white birch sections vs. Time (stains, molds, and fungi [6]; 1 week): 4
Rating of treated white birch sections vs. Time (stains, molds, and fungi [6]; 3 weeks): 4
Rating of treated white birch sections vs. Time (stains, molds, and fungi [6]; 7 weeks): 3
Rating of treated white birch sections vs. Time (stains, molds, and fungi [6]; 12 weeks): 2
MIC (ppm of amine oxides) [11]: 500-1000 ppm
MIC (ppm of amine oxides) [12]: >1000 ppm
MIC (ppm of amine oxides) [13]: 750 ppm
MIC (ppm of amine oxides) [14]: 500 ppm
